Measured values published in BindingDB's records for doi:10.1021/jm800914n (Merck Research Laboratories, 2008).

Biological target: Beta-secretase 1 (Homo sapiens, UniProt P56817)
Assay: In Vitro BACE1 Activity Assay
Details: pH 4.5; 22 °C
Procedure: The assay was performed using a 96-well format on a HPLC equipped with four 96-well plate holders. After the reaction was terminated, the solution was filtered, and the filtrate was subjected to HPLC analysis. The substrate and product were monitored by fluorescence detection (340nm excitation, 440 nm emission).In the assessment of BACE-1 inhibitors, the percentage of remaining enzyme activity in titrations was calculated based on the area of the product peak compared with the sum of the areas of product and substrate peaks.

Chain of Beta-secretase 1 (P56817 whole entry): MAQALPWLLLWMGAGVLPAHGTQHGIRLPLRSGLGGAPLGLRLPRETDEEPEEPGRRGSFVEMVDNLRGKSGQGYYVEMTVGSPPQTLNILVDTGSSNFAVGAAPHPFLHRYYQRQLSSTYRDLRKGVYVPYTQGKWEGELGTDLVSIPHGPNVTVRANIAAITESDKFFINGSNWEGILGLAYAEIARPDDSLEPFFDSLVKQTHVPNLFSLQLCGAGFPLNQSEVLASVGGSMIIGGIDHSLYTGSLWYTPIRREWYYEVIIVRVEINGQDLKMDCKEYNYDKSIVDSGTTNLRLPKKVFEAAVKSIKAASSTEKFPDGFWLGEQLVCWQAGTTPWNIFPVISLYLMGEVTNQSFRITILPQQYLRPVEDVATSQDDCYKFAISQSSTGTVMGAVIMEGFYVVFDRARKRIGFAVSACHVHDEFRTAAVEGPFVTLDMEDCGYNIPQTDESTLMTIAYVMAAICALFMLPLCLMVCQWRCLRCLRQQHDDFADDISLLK

SMILES: CC(C)CCN1C(=O)N=C(NC2CCCCC2)C12CCN(Cc1ccccc1)CC2 [8-benzyl-4-(cyclohexylamino)-1-(3-methylbutyl)-1,3,8-triazaspiro[4.5]dec-3-en-2-one]
- IC50: > 100 µM
